The structures appear in SMILES notation.

Assay [1] deals with angiotensin I converting enzyme (Homo sapiens, UniProt P12821). Put plainly: Inhibitory effects on angiotensin I converting enzyme in vitro (conversion of hippurylhistidylleucine to hippuric acid, RYAN method). As to conditions: substrate HHL. The format is biochemical. The procedure:
The activity of the converting enzyme is determined in vitro according to the method of RYAN J. W. et al. (Biochem. J., 1977, 167, 501-504), which utilizes the reaction of conversion of hippurylhistidylleucine (HHL) to hippuric acid. The latter is assayed by liquid scintillation after extraction with ethyl acetate. The inhibitory effect of a compound is determined by incubation at different doses in the presence of the substrate and the converting enzyme. The results are expressed as the IC50 of these compounds.

Assay [2] concerns amnesic scopolamine-treated animals (scopolamine-induced amnesia). Put plainly: Promnesic effects: one trial-passive avoidance test in rats with scopolamine-induced amnesia. As to conditions: for % Retention at 300 sec. / Latency of transit: 24 h retention. In kind it is in vivo, Male OFA rats (Iffa-Credo). The text has this: Male OFA rats (Iffa-Credo) weighting 210-240 g are placed in individual cages under standard environmental conditions. The memory test is a test of one trial-passive avoidance in which experimental amnesia is induced by prior injection of scopolamine.
The apparatus consists of a two-compartment enclosure separated by an automatically closing door.
On the day of conditioning, each animal is placed during 60 seconds in the aversive compartment (white, brightly lit).
Then the door is rapidly open and the rat can freely enter the compartment where it feels secure (black and dark). Transit thereto triggers closing of the door, followed by application to the animal of an unescapable electric shock via the floor of the dark compartment (0.6 mA; 3 seconds).
Memory retention is measured 24 hours later under the same conditions. For this purpose, the latency of transit to the black compartment is measured and the maximum observation time is set at 300 seconds.
The memory enhancing effect of the compounds under investigation is measured in animals receiving scopolamine. These compounds are administered I.P. twice daily during the 3 days preceding the memory test, and then 1 hour before the conditioning test (i.e. 30 minutes before the scopolamine).
The promnesic effects of the compounds increase the transit time relative to the amnesic animals.
The compounds of the present invention are compared to oxiracetam, the nootropic agent most recently proposed in the therapy of memory disorders.

angiotensin I converting enzyme, sequence (P12821 30-1306): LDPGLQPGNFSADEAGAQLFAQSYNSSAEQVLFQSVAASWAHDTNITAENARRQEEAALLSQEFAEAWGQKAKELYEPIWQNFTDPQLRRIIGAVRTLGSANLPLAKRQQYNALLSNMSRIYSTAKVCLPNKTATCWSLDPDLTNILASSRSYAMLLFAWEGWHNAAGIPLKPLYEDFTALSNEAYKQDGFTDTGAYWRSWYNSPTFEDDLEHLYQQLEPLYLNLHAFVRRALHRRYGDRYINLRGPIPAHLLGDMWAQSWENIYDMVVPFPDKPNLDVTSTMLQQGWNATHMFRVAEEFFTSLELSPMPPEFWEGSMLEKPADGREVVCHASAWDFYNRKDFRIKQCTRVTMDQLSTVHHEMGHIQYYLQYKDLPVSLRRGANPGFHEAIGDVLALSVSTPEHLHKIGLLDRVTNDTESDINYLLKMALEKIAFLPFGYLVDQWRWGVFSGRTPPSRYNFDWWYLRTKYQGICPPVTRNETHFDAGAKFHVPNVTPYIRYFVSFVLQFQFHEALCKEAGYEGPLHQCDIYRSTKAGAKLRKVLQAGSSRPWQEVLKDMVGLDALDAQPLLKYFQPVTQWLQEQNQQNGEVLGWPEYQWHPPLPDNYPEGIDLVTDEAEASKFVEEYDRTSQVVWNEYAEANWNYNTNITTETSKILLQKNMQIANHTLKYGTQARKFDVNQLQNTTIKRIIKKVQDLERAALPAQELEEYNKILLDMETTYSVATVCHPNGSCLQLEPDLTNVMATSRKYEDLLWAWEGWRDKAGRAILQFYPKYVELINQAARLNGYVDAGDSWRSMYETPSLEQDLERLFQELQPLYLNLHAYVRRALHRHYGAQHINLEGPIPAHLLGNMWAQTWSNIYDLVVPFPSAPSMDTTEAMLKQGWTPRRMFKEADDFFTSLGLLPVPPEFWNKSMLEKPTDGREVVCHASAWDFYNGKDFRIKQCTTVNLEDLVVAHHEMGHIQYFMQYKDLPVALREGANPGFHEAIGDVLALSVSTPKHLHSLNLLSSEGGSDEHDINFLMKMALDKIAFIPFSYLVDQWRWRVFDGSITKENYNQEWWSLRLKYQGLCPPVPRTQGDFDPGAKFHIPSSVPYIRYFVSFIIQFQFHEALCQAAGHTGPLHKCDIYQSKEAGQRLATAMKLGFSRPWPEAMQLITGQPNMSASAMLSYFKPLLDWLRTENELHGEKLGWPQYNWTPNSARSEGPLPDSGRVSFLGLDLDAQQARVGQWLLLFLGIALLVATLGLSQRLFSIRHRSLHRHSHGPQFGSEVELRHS

In general, IC50 refers to the midpoint of a concentration-inhibition curve. Higher therefore signals weaker potency in that assay. Take `CCC[C@H](N[C@@H](C)C(=O)N1C2CCC(CC2)[C@H]1C(N)=O)C(=O)O` [Example 2, (3S)-2-{(S)-2-[(S)-1-CARBOXYBUTYLAMINO]-PROPIONYL}-3-CARBAMOYL-2-AZABICYCLO-[2.2.2]OCTANE]: in assay [1], half-maximal inhibition (IC50) required 0.05 µM.
Turning to `CCC[C@H](N[C@@H](C)C(=O)N1C2CCC(CC2)[C@H]1C(N)=O)C(N)=O` [Example 3, (3S)-2-{(S)-2-[(S)-1-CARBAMOYLBUTYL-AMINO]PROPIONYL}-3-CARBAMOYL-2-AZABICYCLO[2.2.2]OCTANE], the “% Retention at 300 sec.” value is 5% in assay [2] (0.003 mg/kg I.P.); 10% in assay [2] (0.01 mg/kg I.P.); 35% in assay [2] (0.03 mg/kg I.P.); 45% in assay [2] (0.1 mg/kg I.P.); 40% in assay [2] (0.3 mg/kg I.P.); 20% in assay [2] (1 mg/kg I.P.). The “% Retention at 300 sec.” value in assay [2] (3 mg/kg I.P.) is given as 10%. Moreover, the “Latency of transit” value in assay [2] (0.003 mg/kg I.P.) was 108.2 s; in assay [2] (0.01 mg/kg I.P.), 119.3 s; in assay [2] (0.03 mg/kg I.P.), 166.4 s; in assay [2] (0.1 mg/kg I.P.), 171.6 s; in assay [2] (0.3 mg/kg I.P.), 182.6 s; in assay [2] (1 mg/kg I.P.) it was 125.2 s. Moreover, in assay [2] (3 mg/kg I.P.), the “Latency of transit” value was determined as 121.3 s.
On to `CCCCCCCCOC(=O)[C@@H]1C2CCC(CC2)N1C(=O)[C@H](C)N[C@@H](CCC)C(N)=O` [Example 4, (3S)-2-{(S)-2-[(S)-1-CARBAMOYLBUTYLAMINO]PROPIONYL}-2-AZABICYCLO[2.2.2]-OCTANE-3-CARBOXYLIC ACID n-OCTYL ESTER], for which the “% Retention at 300 sec.” value in assay [2] (0.003 mg/kg I.P.) came to 10%; in assay [2] (0.01 mg/kg I.P.), 30%; in assay [2] (0.03 mg/kg I.P.), 50%; in assay [2] (0.1 mg/kg I.P.), 55%; in assay [2] (0.3 mg/kg I.P.), 40%; in assay [2] (1 mg/kg I.P.), 40%. In assay [2] (3 mg/kg I.P.), the “% Retention at 300 sec.” value is 5%. Further, the “Latency of transit” value in assay [2] (0.003 mg/kg I.P.) is on record as 115.6 s; in assay [2] (0.01 mg/kg I.P.), 149.3 s; in assay [2] (0.03 mg/kg I.P.), 205.1 s; in assay [2] (0.1 mg/kg I.P.), 207.2 s; in assay [2] (0.3 mg/kg I.P.), 202.1 s; in assay [2] (1 mg/kg I.P.), 171.5 s. Also, in assay [2] (3 mg/kg I.P.), the “Latency of transit” value is given as 106.7 s.
For `NCCCC[C@H](N[C@@H](CCc1ccccc1)C(=O)O)C(=O)N1C2CCC(CC2)[C@H]1C(N)=O` [Example 8, (3S)-2-{(S)-2-[(S)-1-CARBOXY-3-PHENYLPROPYLAMINO]-6-AMINOHEXANOYL}-3-CARBAMOYL-2-AZABICYCLO[2.2.2]OCTANE], the IC50 in assay [1] is 0.018 µM.
Turning to `NC(=O)CN1CC(O)CC1=O` (stereo not drawn) [OXIRACETAM, oxiracetam, reference compound], the “% Retention at 300 sec.” value in assay [2] (1 mg/kg I.P.) was 10%; in assay [2] (3 mg/kg I.P.), 10%; in assay [2] (10 mg/kg I.P.), 5%; in assay [2] (30 mg/kg I.P.), 30%; in assay [2] (100 mg/kg I.P.) it was 40%; in assay [2] (300 mg/kg I.P.), 45%. For the same compound, in assay [2] (1000 mg/kg I.P.), the “% Retention at 300 sec.” value came out at 30%. Also, the “Latency of transit” value in assay [2] (1 mg/kg I.P.) is 97.4 s; in assay [2] (3 mg/kg I.P.) it was 126.5 s; in assay [2] (10 mg/kg I.P.), 115.3 s; in assay [2] (30 mg/kg I.P.), 150.1 s; in assay [2] (100 mg/kg I.P.) it was 182.5 s; in assay [2] (300 mg/kg I.P.), 200.2 s. For the same compound, the “Latency of transit” value in assay [2] (1000 mg/kg I.P.) turned out to be 175.8 s. Besides, the minimal effective dose in assay [2] (Rattus norvegicus, ip, I.P., minimal active dose, read-out: dose with protective effect (scopolamine-induced amnesia)) is no less than 30 mg/kg.

(Values after patent US5151432A, “Substituted amino acid compounds” (Adir et Compagnie, priority 1989, dated 1992).)
